The source of these data is patent US20110217300A1, “Quinazolinone Compounds and Methods of Use Thereof” (priority 2007, published 2011).

The test system of one assay is NCI-H460. As to the kind of experiment: MTS cell viability assay. Type of assay: cell-based, human. The settings on record: Homo sapiens, NCI-H460, 72 h. Here is the method: Cell viability was determined by measuring the activity of dehydrogenase enzymes in metabolically active cells using a tetrazolium compound, MTS. The assay was performed as described in Promega Technical Bulletin No. 169 (CellTiter 96 Aqueous Non-Radioactive Cell Proliferation Assay). Two human cancer cell lines were assayed (see, Table 1). Cells were maintained at 37° C. and 5% CO2 in DMEM media (4.5 g/L glucose) supplemented with 10% heat-inactivated FBS, 10 mM L-glutamine, and 10 mM Hepes pH 7.5. Briefly, cells were seeded in 96-well plates as set forth in Table 1 and incubated for 16-24 hours. Candidate compounds were serially diluted in DMSO, further diluted in cell culture media, and then added to cells (final DMSO concentration of 0.33%). Cells were incubated in the presence of candidate compound for 72 hours. MTS stock solution (MTS 2 gm/L, PMS […] in PBS) was added to the cells (final concentration MTS […] and PMS 7.67 mg/L) and incubated for 4 hours. SDS was added to a final concentration of 1.4% and absorbance at 490 nm was measured within two hours using a plate reader. […] GI50 values were given in Table 2 for the compounds listed. The Compound Numbers in Table 2 correspond to the numbers listed parenthetically in the Example titles. Where multiple measurements were made by different technicians, both values are given.
Cell viability was determined for N-(3-amino-propyl)-3-chloro-N—[(R)-1-(7-chloro-4-oxo-3-phenylamino-3,4-dihydro-quinazolin-2-yl)-but-3-ynyl]-2-fluoro-benzamide (compound I of Table 2). The cell viability assay of Example 105 was used. GI50 was determined using a variety of cell lines. Cells were plated at 100-5000 cells per well. At least 2 replicates were performed. Where multiple measurements were made by different technicians, both values are given.
Background: Tetrazolium dyes change colour on reduction, which living cells bring about.

Another assay relates to A549. As to the kind of experiment: MTS cell viability assay. Type of assay: cell-based. The settings on record: Homo sapiens, A549 non small cell lung, 72 hours, read-out: MTS NCI A549 GI50. Here is the method: Two human cancer cell lines were assayed (see, Table 1). Cells were maintained at 37° C. and 5% CO2 in DMEM media (4.5 g/L glucose) supplemented with 10% heat-inactivated FBS, 10 mM L-glutamine, and 10 mM Hepes pH 7.5. Briefly, cells were seeded in 96-well plates as set forth in Table 1 and incubated for 16-24 hours. Candidate compounds were serially diluted in DMSO, further diluted in cell culture media, and then added to cells (final DMSO concentration of 0.33%). Cells were incubated in the presence of candidate compound for 72 hours. […] The Compound Numbers in Table 2 correspond to the numbers listed parenthetically in the Example titles.

The target of a further assay is T1, HsEg5 (Homo sapiens, UniProt P52732).
T1 sequence (P52732 18-359 limits assumed): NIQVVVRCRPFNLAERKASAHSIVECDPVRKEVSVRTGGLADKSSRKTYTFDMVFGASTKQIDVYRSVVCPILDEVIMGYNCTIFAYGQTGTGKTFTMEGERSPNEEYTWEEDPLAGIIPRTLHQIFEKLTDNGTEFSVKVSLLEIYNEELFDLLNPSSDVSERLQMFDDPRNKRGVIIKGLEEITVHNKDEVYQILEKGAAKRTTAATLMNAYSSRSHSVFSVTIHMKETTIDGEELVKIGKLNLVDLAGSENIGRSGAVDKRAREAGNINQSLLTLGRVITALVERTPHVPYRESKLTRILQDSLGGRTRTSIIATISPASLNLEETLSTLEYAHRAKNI
As to the kind of experiment: Fluorescence detection of HsEg5 ATPase activity (ADP Quest, automated). Type of assay: biochemical. Here is the method: Purified HsEg5 motor fragment was activated by mixture with preformed MT polymer (Cytoskeleton, Denver, Colo.) at room temperature for 20 minutes. MT activated ATPase activity was measured using ADP Quest (DiscoverX, Fremont, Calif.) in which a coupled-enzyme assay can translate accumulation of ADP into detectable resorufin signal (FIG. 1A). Fluorescence was measured at λEx=535 nm and λEm=590 nm on a Wallac Victor 2 plate reader (Perkin-Elmer Life Sciences, Boston, Mass.). Reagent A and B from ADP Quest kit were aliquoted and frozen in −20° C. before use. A standard curve was determined using the provided ADP reagent in the reaction buffer that consisted of 50 mM Pipes (pH7.0), 5.0 mM MgCl2, 20 μM paclitaxel and […]. The same buffer was used for Km determination with HsEg5 concentration of 10 nM.
For inhibitor screening, 4 μL of compounds were incubated with 10 μL of MT-activated HsEg5 such that the final concentrations for compound range from 100 μM to 5 nM (1 to 3 serial dilutions, final concentration) and final concentration for HsEg5 is 10 nM. The mixture was incubated at room temperature for 10 minutes with mild shaking. The screening assay contained 0.3% DMSO in all reaction wells. We used wells containing only DMSO as negative controls and wells without ATP as background. Addition of 6 μL ATP (final concentration of 20 μM) initiated the ATP hydrolysis reaction. The 20 μL-reaction was allowed to proceed at room temperature for 10 minutes before addition of 10 μL of reagent A and 20 μL of reagent B. After 20-minute development at room temperature, the fluorescence was measured and data analysis was performed using GraphPad Prism version 3.0 (GraphPad Software, San Diego, Calif.)
For the purpose of high-throughput screening, we automated the fluorescence assay using a Sciclone ALH3000 (Caliper Life Sciences, Hopkinton, Mass.) and Multidrop 384 (Thermo Electron Corp, Waltham, Mass.). First, compound dilution plates for screening (at 10 μM or 1 μM) and ICso determination (10 data points from 100 μM to 5 nM) were made in Corning polypropylene V-bottom 96-well plates. In both cases, the 1st and 7th column contained background (No ATP addition) and negative control (DMSO only). For screening compounds at 10 μM or 1 μM, […] of each compound at 50 μM or 5 μM were used in a 20 μL assay reaction. For IC50 determination, the mother compound plate contained 24 μL of tested compound at stock concentration of 30 mM. 6 μL of each test compound in 30 mM was added to each well in the column 2 and followed by 1:3 serial dilutions in DMSO with the Sciclone ALH3000. 234 μL of assay buffer was then added using a Multidrop 384. Then 4 μL of diluted compounds was used in 20 μL-reaction. The final concentration was a 1:300 dilution of the original stock. Second, a reagent source plate was prepared with three rows designated to MT-activated HsEg5, Reagent A and Reagent B respectively. MTs were diluted with assay buffer and polymerized at room temperature for 10 minutes. Just before use, HsEg5 protein was thawed on ice and activated by addition of MT polymers at room temperature for 20 minutes. HsEg5/MT was then added to Row A of the reagent source plate. The final assay concentration was 10 nM HsEg5 and 500 nM MTs. Reagent A and B were stored at −20° C. and thawed at room temperature followed by transferring to rows B & C of the reagent source plate. Third, ATP substrate plate was prepared by transferring 80 μM ATP solution to each well of a V-shape 96-well plate except the wells in the first row where assay buffer was added instead to have no-ATP blanks. The final concentration for ATP in the assay was 20 μM.
The assay was programmed on Sciclone ALH3000 with the following procedures: 1) Addition of 4 μL compounds to the assay plate, followed by addition of 10 μL of MT-activated HsEg5. […]

The mark [1] stands for this setting: read-out: MTS NCI H460 GI50, NCI-H460 non small cell lung, 72 hours.

Read-outs that look alike come from different tables or passages of the source.

Turning to `NCCCN(C(=O)c1ccc(F)c(Cl)c1)C(Cc1cccs1)c1nc2cc(Cl)ccc2c(=O)n1Nc1ccccc1` (stereo not shown) [Compound 53, N-(3-Aminopropyl)-N-[1-(3-anilino-7-chloro-4-oxo-3,4-dihydroquinazolin-2-yl)-2-(2-thienyl)ethyl]-3-chloro-4-fluorobenzamide], the GI50 (in general, the concentration at which growth is held to half of that of the control) in the assay with NCI-H460 (setting [1]) was found to be 4.44 µM; in the assay with A549 (A549, 72 h) it was 5.26 µM. Moreover, inhibition on HsEg5 was half-maximal at 2.62 µM (IC50).

Turning to `CCC(c1nc2cc(Cl)ccc2c(=O)n1Nc1ccccc1)N(CCN)C(=O)c1cccc(Cl)c1F` (stereo not shown) [Compound 64, N-(2-Aminoethyl)-N-[1-(3-anilino-7-chloro-4-oxo-3,4-dihydroquinazolin-2-yl)propyl]-3-chloro-2-fluorobenzamide], the GI50 with NCI-H460 (read-out: MTS NCI H460 GI50) amounted to 6.81 µM; in the assay with A549 it was 12.6 µM. Moreover, the midpoint of inhibition on HsEg5, the IC50, lay at 1.46 µM.

For `Cc1ccc(C(=O)N(CCCN)C(c2nc3cc(Cl)ccc3c(=O)n2Nc2ccccc2)C(C)C)cc1F` (stereo not shown) [Compound 46, N-(3-Aminopropyl)-N-[1-(3-anilino-7-chloro-4-oxo-3,4-dihydroquinazolin-2-yl)-2-methylpropyl]-3-fluoro-4-methylbenzamide], the concentration for 50% growth inhibition (GI50) in the assay on NCI-H460 (setting [1]) came to 0.678 µM. Also, the IC50 (in general, the concentration that inhibits the measured activity by half) against HsEg5 was 0.246 µM.

Regarding `C#CC[C@H](c1nc2cc(Cl)ccc2c(=O)n1Nc1ccccc1)N(CCCN)S(=O)(=O)c1ccc(C)cc1` [Compound 30, N-(3-amino-propyl)-N—[(R)-1-(7-chloro-4-oxo-3-phenylamino-3,4-dihydro-quinazolin-2-yl)-but-3-ynyl]-4-methyl-benzenesulfonamide], the GI50 is 12 µM in the assay with NCI-H460 (setting [1]) and 7.1 µM in the assay with A549 (A549, 72 h).

For the compound `CC[C@H](c1nc2cc(Cl)ccc2c(=O)n1Nc1ccccc1)N(CCCN)Cc1ccc(F)c(C)c1` [Compound 69, 2-{(1R)-1-[(3-Aminopropyl)(4-fluoro-3-methylbenzyl)amino]propyl}-3-anilino-7-chloro-3H-quinazolin-4-one], the GI50 in the assay with NCI-H460 (setting [1]) turned out to be 3.77 µM; with A549 (A549, 72 h) it was 3.9 µM.

For the compound `CC[C@H](c1nc2cc(Cl)ccc2c(=O)n1Nc1ccccc1)N(CCCN)S(=O)(=O)c1c(C)nn(C)c1C` [Compound 33, N-(3-Aminopropyl)-N-[(1R)-1-(3-anilino-7-chloro-4-oxo-3,4-dihydroquinazolin-2-yl)propyl]-1,3,5-trimethyl-1H-pyrazole-4-sulfonamide], in the assay on NCI-H460 (read-out: MTS NCI H460 GI50), the GI50 came out at 10.4 µM. On HsEg5, this compound had an IC50 of 4.22 µM.

Consider `CCC(c1nc2cc(Cl)ccc2c(=O)n1Nc1ccccc1)N(CCN)C(=O)c1ccc(Cl)cc1` (stereo not shown) [Compound 60, N-(2-Aminoethyl)-N-[1-(3-anilino-7-chloro-4-oxo-3,4-dihydroquinazolin-2-yl)propyl]-4-chlorobenzamide], for which the GI50 in the assay on NCI-H460 (read-out: MTS NCI H460 GI50) turned out to be 10 µM. For the same compound, at HsEg5, the IC50 turned out to be 3.99 µM.

Regarding `CC[C@H](c1nc2cc(Cl)ccc2c(=O)n1Nc1ccccc1)N(CCCN)Cc1ccccc1` [Compound 70, 2-{(1R)-1-[(3-aminopropyl)(benzyl)amino]propyl}-3-anilino-7-chloro-3H-quinazolin-4-one], the GI50 with NCI-H460 (setting [1]) was determined as 4.23 µM; in the assay on A549 (A549, 72 h), 6.91 µM.

Take `CC[C@H](c1nc2cc(Cl)ccc2c(=O)n1Nc1ccccc1)N(CCCN)Cc1ccc(C)cc1` [Compound 68, 2-{(R)-1-[(3-Amino-propyl)-(4-methyl-benzyl)-amino]-propyl}-7-chloro-3-phenylamino-3H-quinazolin-4-one]: the GI50 turned out to be 2.59 µM in the assay on NCI-H460 (setting [1]) and 3.86 µM in the assay with A549 (A549, 72 h).

As to `CC[C@H](c1nc2cc(Cl)ccc2c(=O)n1Nc1ccccc1)N(CCCN)S(=O)(=O)c1cccc(F)c1` [Compound 31, N-(3-Aminopropyl)-N-[(1R)-1-(3-anilino-7-chloro-4-oxo-3,4-dihydroquinazolin-2-yl)propyl]-3-fluorobenzenesulfonamide], in the assay with A549, the GI50 was 10.8 µM. The same compound displayed an IC50 against HsEg5 of 1.43 µM.

Regarding `C#CC[C@H](c1nc2cc(Cl)ccc2c(=O)n1Nc1ccccc1)N(CCCN)Cc1ccc(C)cc1` [Compound 66, 2-{(R)-1-[(3-Amino-propyl)-(4-methyl-benzyl)-amino]-but-3-ynyl}-7-chloro-3-phenylamino-3H-quinazolin-4-one], the GI50 with NCI-H460 (setting [1]) is 3.2 µM; in the assay with A549 (A549, 72 h), 2.35 µM.

For the compound `CCCCC(c1nc2cc(Cl)ccc2c(=O)n1Nc1ccccc1)N(CCCN)C(=O)c1ccc(C)cc1` (stereo not shown) [Compound 59, N-(3-Aminopropyl)-N-[1-(3-anilino-7-chloro-4-oxo-3,4-dihydroquinazolin-2-yl)pentyl]-4-methylbenzamide], the GI50 in the assay with NCI-H460 (read-out: MTS NCI H460 GI50) was 4.24 µM. For the same compound, the IC50 against HsEg5 worked out at 52.3 µM.

In the case of `CSCCC(c1nc2cc(Cl)ccc2c(=O)n1Nc1ccccc1)N(CCCN)C(=O)c1cccc(Cl)c1F` (stereo not shown) [Compound 38, N-(3-Aminopropyl)-N-[1-(3-anilino-7-chloro-4-oxo-3,4-dihydroquinazolin-2-yl)-3-(methylthio)propyl]-3-chloro-2-fluorobenzamide], the GI50 in the assay on NCI-H460 (setting [1]) was found to be 3.59 µM. In addition, half-maximal inhibition at HsEg5 (IC50) required 4.59 µM.
